The test system of assay [1] is brain dopamine turnover. Put plainly: brain dopamine turnover, rats. The format is in vivo. As to conditions: 5-50 mg/kg ip. From the text:
(§1) It could be co-administered with the μ-ORAs amplifying their analgesic activity and, more importantly, protecting against the opioid dependence of the μ-ORAs.

In a further assay the target is sigma-1 (Homo sapiens, UniProt Q99720). Nature of the assay: sigma-1 affinity. The format is binding.
In assay [2] the test system is Maximal Electrochoc Seizures (MES). Put plainly: Maximal Electrochoc Seizures (MES). The format is in vivo. As to conditions: mice.
Assay [3] relates to brain dopamine turnover. To be noted: rats; cited from earlier work.
The target of another assay is sigma-2 receptors (Homo sapiens, UniProt Q5BJF2). Put plainly: sigma-2 receptor affinity. The format is binding.
sigma-2 receptors, sequence (Q5BJF2 whole entry): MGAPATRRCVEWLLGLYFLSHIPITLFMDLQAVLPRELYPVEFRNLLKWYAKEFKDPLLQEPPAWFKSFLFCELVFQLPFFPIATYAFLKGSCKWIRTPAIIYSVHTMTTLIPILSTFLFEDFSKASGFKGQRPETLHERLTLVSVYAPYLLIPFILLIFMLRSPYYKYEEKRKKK
Assay [4] concerns brain dopamine turnover. As to conditions: mice; cited from earlier work.
For assay [5], the system named is brain dopamine turnover. Put plainly: brain dopamine turnover, mice. The format is in vivo. To be noted: 5-50 mg/kg ip.
Excerpt: as §1

In assay [6] the test system is Paclitaxel induced neuropathic sensitization (PINS). Nature of the assay: Paclitaxel induced neuropathic sensitization (PINS) in the formalin test of pain. The format is in vivo. To be noted: mice; for suppression of PINS: 35-40 mn central sensitization phase, formalin induced pain. As to the method:
Fendiline at 1 or 5 mg/kg, per os (po) suppressed the PINS by 75% or 63%, respectively, in the 35-40 mn central sensitization phase, in the formalin induced pain, in mice (Compound A1).
When fendiline was administered at 25 or 75 mg/kg (po) per os (po), PINS diminished by 181% or 275%, respectively in mice (Compound A2), i.e., less pain reaction than the control which hadn't receive Paclitaxel.

In assay [7] the test system is Pentylenetetrazole (PTZ) convulsions. Put plainly: Pentylenetetrazole (PTZ) convulsions. The format is in vivo. As to conditions: mice.

Like-named read-outs stand apart in the source and are kept apart here.

sigma-1, sequence (Q99720 whole entry): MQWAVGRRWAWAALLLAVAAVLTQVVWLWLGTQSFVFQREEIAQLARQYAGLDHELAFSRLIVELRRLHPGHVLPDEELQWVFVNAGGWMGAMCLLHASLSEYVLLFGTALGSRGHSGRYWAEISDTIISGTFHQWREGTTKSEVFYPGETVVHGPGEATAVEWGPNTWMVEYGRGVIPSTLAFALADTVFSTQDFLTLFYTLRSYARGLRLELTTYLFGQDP

Consider `CC(NCCC(c1ccccc1)c1ccccc1)c1ccccc1` (stereo not drawn) [Fendiline, 3,3-diphenyl-N-(1-phenylethyl) propan-1-amine], for which the “brain DA turnover” value with brain dopamine turnover [1] and in the assay with brain dopamine turnover [5] was “decrease of the DA turnover” each time. Moreover, the Ki at sigma-1 lay in the range of 14 to 18 nM; at sigma-2 receptors it was 730 to 850 nM. Further, the “anticonvulsive activity in MES” value in assay [2] is given as “absence of anticonvulsive activities”. For the same compound, the brain dopamine turnover entry in the assay with brain dopamine turnover [3] and with brain dopamine turnover [4] was “decrease of the brain dopamine turnover” throughout. The “suppression of PINS” value in assay [6] (1 mg/kg po) is 75%; in [6] (5 mg/kg po), 63%. Further, the results for the PINS diminished in assay [6] (25 mg/kg po) and in assay [6] (75 mg/kg po) were 181% and 275%, respectively. Also, the “anticonvulsive activity in PTZ convulsions” value in [7] is given as “absence of anticonvulsive activities”.
